System: human anaplastic large-cell lymphoma (ALCL) tumor model
Assay: Antitumor activity in vivo, ALCL tumors grafted subcutaneously in mice, oral daily dosing
Details: mice with subcutaneous ALCL tumors, daily schedule, animals weighed
Experimental: Pharmacological Activity In Vivo
The compounds were administered orally at various doses on a daily schedule to mice with ALCL tumors grafted subcutaneously. Tumor size was measured regularly during the study and the animals were weighed several times per week in order to identify any adverse effects. A compound is declared active if it induces inhibition of ALCL tumor growth by at least 58%.

CN1CCN(c2ccc(C(=O)Nc3n[nH]c4ncc(Sc5cc(F)cc(F)c5)cc34)c(NC3CCOCC3)c2)CC1 [Example 30, N-(5-(3,5-difluorophenylthio)-1-H-pyrazolo[3,4-b]pyridine-3-yl)-4-(4-methylpiperazine-1-yl)-2-(tetrahydro-2H-pyran-4-ylamino)benzamide]
adverse effects / tolerance in vivo: no adverse effects

CN1CCN(c2ccc(C(=O)Nc3n[nH]c4ncc(Cc5cc(F)cc(F)c5)cc34)c(NC3CCOCC3)c2)CC1 [Example 30-9, N-(5-(3,5-difluorobenzyl)-1H-pyrazolo[3,4-b]pyridin-3-yl)-4-(4-methylpiperazin-1-yl)-2-(tetrahydro-2H-pyran-4-ylamino)benzamide]
adverse effects / tolerance in vivo: no adverse effects

Source: patent US8883821B2, “Substituted pyrazolo[3,4-b]pyridines as medicaments” (Pierre Fabre Medicament, priority 2011, dated 2014)
